The text below walks through data of paper PMC4182301, “Design, synthesis and SAR exploration of tri-substituted 1,2,4-triazoles as inhibitors of the annexin A2–S100A10 protein interaction” (Bioorganic & Medicinal Chemistry, 2014).

Test [1] has as its target T1, native complex between annexin A2 and S100A10 (Homo sapiens, UniProt P60903).
T1 construct: the native complex of the two full-length proteins, AnxA2 and S100A10; endogenous in cells; host or cells: MDA-MB-231 human breast cancer cells (lysate)
Description: Co-immunoprecipitation of AnxA2 with S100A10 (native complex) from cell lysates, Western blot. The class given is binding. The note with it: MDA-MB-231 cell lysates preincubated with compound or peptide; compared with vehicle. Here is the method:
In the presence of the isolated synthetic peptide AnxA2(1–14), the amount of AnxA2 in the S100A10 immunoprecipitate is reduced, due to it competing with the binding between native AnxA2 and S100A10.
Figure 5 Co-immunoprecipitation of AnxA2 with S100A10. S100A10 was immunoprecipitated from cell lysates and co-immunoprecipitation of AnxA2 was assessed by Western blotting. The amount of AnxA2 in the S100A10 immunoprecipitate was quantified using Scion Image Software and expressed as a percentage of the vehicle-treated sample (n = 4 ± SE).
Human MDA-MB-231 breast cancer cells were extracted in 50 mM Tris–HCl (pH 8.0) buffer containing 150 mM sodium chloride and 1% (v/v) NP-40. Lysates were centrifuged at 17,000×g and incubated at 4 °C for 16 h with 10 μL S100A10 antibody (BD transduction Laboratories) and 50 μL protein A/G agarose (Alpha Diagnostic International Inc). […] The supernatant was then analyzed by SDS–PAGE after which the gel was transferred to a nitrocellulose filter. […]
(In western blotting, separated proteins are transferred to a membrane and probed.)

The target of test [2] is interaction between the AnxA2 N-terminus and S100A10 (Homo sapiens, UniProt P60903). Description: Fluorescence screening assay (FRET competitive binding, Cy3-AnxA2(Ac1–14) peptide / Cy5-S100A10). The note with it: for pIC50 ± SE / IC50: FRET assay, 12 observations; for fold loss of activity on truncation of the 4,6-dimethylpyrimidin-2-ylsulfanyl side chain to methyl: relative to parent compound (64 vs 36, 65 vs 46, 66 vs 47). Here is the method: Assessment of compound activity was performed as described.[35] Briefly, a Cy5-labelled S100A10 tracer was developed and binding of a Cy3-labelled AnxA2(Ac1–14) peptide ligand was assessed using a fluorescence resonance energy transfer readout. Assays were carried out in Nunc black non-treated 384-well plates at 20 °C in 50 μL buffer C. All incubations were performed in quadruplicate. Compounds, peptide and buffer controls were added to the wells in a 10 μL volume in 5% DMSO. Cy5-labelled S100A10 tracer (407 nM) and Cy3-labelled AnxA2(Ac1–14) peptide ligand (1.33 μM) were pre-incubated for 5 min at 20 °C and 40 μL of the preformed complex was then added to the wells and mixed for 10 s to yield a final DMSO concentration of 1%. After 5 min incubation at 20 °C, readings were taken on a Perkin Elmer Envision plate reader by excitation at 488 nm and emission at 695 nm. Fluorescence resonance energy transfer (FRET) was calculated by subtracting the sum of the fluorescence emission of S100A10-Cy5 and AA2(1–14)-Cy3 individually from that measured for the co-incubated partners. Compound binding was calculated as percentage of non-treated control and data were analysed by non-linear regression (dose response—variable slope with bottom and top parameters fixed at 0% and 100%, respectively) using Graphpad Prism Software to determine the IC50 of binding (primary assay).
Chain of interaction between the AnxA2 N-terminus and S100A10 (P60903 whole entry, species assumed, the tested form may be a part): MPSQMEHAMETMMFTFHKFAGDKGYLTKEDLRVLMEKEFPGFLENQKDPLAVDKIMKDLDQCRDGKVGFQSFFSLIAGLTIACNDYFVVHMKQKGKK

Setting [3] is: Table 1, read-out: pIC50 ± SE (converted).

Entries after “also recorded” stand apart in the source; their conditions may differ. Read-outs that look alike come from different tables or passages of the source.

T1 sequence (P60903 whole entry, one chain of several): as the sequence (P60903 whole entry, species assumed, the tested form may be a part) above

For `Cc1cc(C)nc(SCc2nnc(SCC(=O)Nc3ccc(C(C)C)cc3)n2Cc2ccco2)n1` [Compound 36, 2-[5-(4,6-Dimethyl-pyrimidin-2-ylsulfanylmethyl)-4-furan-2-ylmethyl-4H-[1,2,4]triazol-3-ylsulfanyl]-N-(4-isopropyl-phenyl)-acetamide], in test [1], the “amount of AnxA2 in the S100A10 immunoprecipitate” value is recorded as “disrupt the native complex; also recorded: reduced”. Moreover, the “pIC50 ± SE” value in test [2] (Table 1) is on record as 5.35 ± 0.04. Further, the IC50 in test [2] (Table 1, read-out: IC50) was determined as 4 µM. The “fold increase in potency compared to initial hit compound 1a” value in test [2] (relative to 1a) was roughly 10 fold.

As to `Cc1cc(C)nc(SCc2nnc(SCC(=O)Nc3cc(C)on3)n2Cc2ccco2)n1` [Compound 30, 2-[5-(4,6-Dimethyl-pyrimidin-2-ylsulfanylmethyl)-4-furan-2-ylmethyl-4H-[1,2,4]triazol-3-ylsulfanyl]-N-(5-methyl-isoxazol-3-yl)-acetamide], the “pIC50 ± SE” value in test [2] (Table 1) came out at 4.37 ± 0.07. Moreover, in test [2] (Table 1, read-out: IC50), the IC50 came out at 43 µM.

On to `COCCCn1c(CSc2nc(C)cc(C)n2)nnc1SCC(=O)Nc1ccc(C)c(C)c1` [Compound 42, N-(3,4-Dimethyl-phenyl)-2-[5-(4,6-dimethyl-pyrimidin-2-ylsulfanylmethyl)-4-(3-methoxy-propyl)-4H-[1,2,4]triazol-3-ylsulfanyl]-acetamide], for which the “pIC50 ± SE” value in test [2] (Table 2) is 4.49 ± 0.04. Also, the IC50 in test [2] (Table 2, read-out: IC50) amounted to 32 µM.

As to `Cc1nnc(NC(=O)CSc2nnc(Cc3ccccc3)n2Cc2ccccc2)s1` [Compound 1b], in test [2] (Table 1, read-out: IC50), the IC50 amounted to 53 µM.

As for `Cc1cc(C)nc(SCc2nnc(SCC(=O)Nc3ccccc3)n2Cc2ccco2)n1` [Compound 31, 2-[5-(4,6-Dimethyl-pyrimidin-2-ylsulfanylmethyl)-4-furan-2-ylmethyl-4H-[1,2,4]triazol-3-ylsulfanyl]-N-phenyl-acetamide], the “pIC50 ± SE” value in test [2] (Table 1) is given as 4.63 ± 0.04. Further, the IC50 in test [2] (Table 1, read-out: IC50) is 23 µM.

`COc1ccc(NC(=O)CSc2nnc(CSc3nc(C)cc(C)n3)n2-c2ccc(OC)cc2)cc1` [Compound 56, 2-[5-(4,6-Dimethyl-pyrimidin-2-ylsulfanylmethyl)-4-(4-methoxy-phenyl)-4H-[1,2,4]triazol-3-ylsulfanyl]-N-(4-methoxy-phenyl)-acetamide]: the “pIC50 ± SE” value in test [2] (Table 2) stood at 3.81 ± 0.03. The IC50 in test [2] (Table 2, read-out: IC50) was found to be 154 µM.

For the compound `COCCCn1c(CSc2nc(C)cc(C)n2)nnc1SCC(=O)Nc1ccc(C(C)C)cc1` [Compound 47, 2-[5-(4,6-Dimethyl-pyrimidin-2-ylsulfanylmethyl)-4-(3-methoxy-propyl)-4H-[1,2,4]triazol-3-ylsulfanyl]-N-(4-isopropyl-phenyl)-acetamide], the “pIC50 ± SE” value in test [2] (Table 2) was determined as 5.13 ± 0.04. Besides, in test [2] (Table 2, read-out: IC50), the IC50 worked out at 7 µM.

As to `CCCCn1c(SCC(=O)Nc2cccc(C)n2)nnc1-c1ccco1` [Compound 1d], the IC50 in test [2] (Table 1, read-out: IC50) is 103 µM; in test [2] (setting [3]), 105 µM.

Turning to `COCCCn1c(CSc2nc(C)cc(C)n2)nnc1SCC(=O)Nc1ccc(C(F)(F)F)cc1` [Compound 51, 2-[5-(4,6-Dimethyl-pyrimidin-2-ylsulfanylmethyl)-4-(3-methoxy-propyl)-4H-[1,2,4]triazol-3-ylsulfanyl]-N-(4-trifluoromethyl-phenyl)-acetamide], the “pIC50 ± SE” value in test [2] (Table 2) is recorded as 5.02 ± 0.04. Further, the IC50 in test [2] (Table 2, read-out: IC50) is 10 µM.

Regarding `Cc1ccc(C)c(NC(=O)CSc2nnc(CSc3nc(C)cc(C)n3)n2Cc2ccco2)c1` [Compound 1a, N-(2,5-Dimethyl-phenyl)-2-[5-(4,6-dimethyl-pyrimidin-2-ylsulfanylmethyl)-4-furan-2-ylmethyl-4H-[1,2,4]triazol-3-ylsulfanyl]-acetamide], the IC50 in test [2] (Table 1, read-out: IC50) was 37 µM; in test [2] (setting [3]), 38 µM.

As for `COc1ccc(-n2c(CSc3nc(C)cc(C)n3)nnc2SCC(=O)Nc2ccc(C(C)C)cc2)cc1` [Compound 48, 2-[5-(4,6-Dimethyl-pyrimidin-2-ylsulfanylmethyl)-4-(4-methoxy-phenyl)-4H-[1,2,4]triazol-3-ylsulfanyl]-N-(4-isopropyl-phenyl)-acetamide], the “pIC50 ± SE” value in test [2] (Table 2) came out at 4.82 ± 0.02. Also, the IC50 in test [2] (Table 2, read-out: IC50) worked out at 15 µM.

Take `Cc1cc(C)nc(SCc2nnc(SCC(=O)Nc3ccc(C(C)C)cc3)n2-c2ccc(Cl)cc2)n1` [Compound 49, 2-[4-(4-Chloro-phenyl)-5-(4,6-dimethyl-pyrimidin-2-ylsulfanylmethyl)-4H-[1,2,4]triazol-3-ylsulfanyl]-N-(4-isopropyl-phenyl)-acetamide]: in test [2] (Table 2), the “pIC50 ± SE” value came to 4.58 ± 0.04. The IC50 in test [2] (Table 2, read-out: IC50) came to 27 µM.

Take `Cc1nnc(SCC(=O)Nc2ccc(C(C)C)cc2)n1Cc1ccco1` [Compound 64, 2-(4-Furan-2-ylmethyl-5-methyl-4H-[1,2,4]triazol-3-ylsulfanyl)-N-(4-isopropyl-phenyl)-acetamide]: the “pIC50 ± SE” value in test [2] (Table 3) was found to be 4.40 ± 0.03. Also, the IC50 in test [2] (Table 3, read-out: IC50) came to 40 µM. In addition, in test [2], the “fold loss of activity on truncation of the 4,6-dimethylpyrimidin-2-ylsulfanyl side chain to methyl” value amounted to 10 fold.

Consider `COc1ccc(-n2c(CSc3nc(C)cc(C)n3)nnc2SCC(=O)Nc2ccc(C)c(C)c2)cc1` [Compound 43, N-(3,4-Dimethyl-phenyl)-2-[5-(4,6-dimethyl-pyrimidin-2-ylsulfanylmethyl)-4-(4-methoxy-phenyl)-4H-[1,2,4]triazol-3-ylsulfanyl]-acetamide], for which the “pIC50 ± SE” value in test [2] (Table 2) was 4.29 ± 0.09. In test [2] (Table 2, read-out: IC50), the IC50 turned out to be 52 µM.

Consider `Cc1ccc(NC(=O)CSc2nnc(CSc3nc(C)cc(C)n3)n2Cc2ccco2)c(C)c1` [Compound 34, N-(2,4-Dimethyl-phenyl)-2-[5-(4,6-dimethyl-pyrimidin-2-ylsulfanylmethyl)-4-furan-2-ylmethyl-4H-[1,2,4]triazol-3-ylsulfanyl]-acetamide], for which the “pIC50 ± SE” value in test [2] (Table 1) is 4.83 ± 0.04. Also, the IC50 in test [2] (Table 1, read-out: IC50) was determined as 15 µM.

Turning to `C=CCn1c(C)nnc1SCC(=O)Nc1ccc(C(C)C)cc1` [Compound 65, 2-(4-Allyl-5-methyl-4H-[1,2,4]triazol-3-ylsulfanyl)-N-(4-isopropyl-phenyl)-acetamide], the “pIC50 ± SE” value in test [2] (Table 3) was found to be 3.86 ± 0.11. In addition, the IC50 in test [2] (Table 3, read-out: IC50) came to 138 µM. Also, the “fold loss of activity on truncation of the 4,6-dimethylpyrimidin-2-ylsulfanyl side chain to methyl” value in test [2] is 14 fold.
